Where two headings read alike, the source gives them in different places.
What was measured:
BRD9 = biological target: T1, BRD9 (Homo sapiens, UniProt Q9H8M2); test: BRD9 degradation in Yamato-SS cells (endogenous), Western blot; type: cell-based; settings: percent BRD9 detected, read-out: Emax(%)
T1 sequence (Q9H8M2 1-597): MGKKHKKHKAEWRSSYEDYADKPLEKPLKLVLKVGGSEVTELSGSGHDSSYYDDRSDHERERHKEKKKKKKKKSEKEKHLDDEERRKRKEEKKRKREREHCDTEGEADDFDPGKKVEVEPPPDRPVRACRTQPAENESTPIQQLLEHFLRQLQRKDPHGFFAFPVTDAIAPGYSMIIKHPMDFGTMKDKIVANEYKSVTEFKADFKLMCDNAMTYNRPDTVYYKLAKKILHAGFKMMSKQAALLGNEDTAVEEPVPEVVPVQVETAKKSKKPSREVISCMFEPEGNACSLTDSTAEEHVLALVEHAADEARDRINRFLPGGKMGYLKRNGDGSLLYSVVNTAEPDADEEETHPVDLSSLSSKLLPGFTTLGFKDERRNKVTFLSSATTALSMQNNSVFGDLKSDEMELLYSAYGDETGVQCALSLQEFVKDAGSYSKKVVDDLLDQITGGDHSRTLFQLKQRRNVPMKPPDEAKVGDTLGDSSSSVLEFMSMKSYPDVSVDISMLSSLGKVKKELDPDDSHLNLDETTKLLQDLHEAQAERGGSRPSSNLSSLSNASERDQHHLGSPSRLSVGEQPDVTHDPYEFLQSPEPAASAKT
Protocol: The purpose of this study was to evaluate the detection of BRD9 in a human cell line and susceptibility to degradation by Compound 1.
Previously frozen YAMATO-SS human cells (provided by the RIKEN BRC through the National BioResource Project of the MEXT/AMED, Japan (cat #RCB3577)) were thawed. Upon thawing, the cells were transferred to a 15 mL conical tube containing 10 mL of warm RPMI-1640 medium (Catalog No. C2400500BT, Gibco, Grand Island, NY, USA) supplemented with 10% FBS (Catalog No. SV30087.03, Cytiva, Marlborough, MA, USA) and spun down for 5 minutes at 1200 rpm. An aliquot was diluted 2× with Trypan Blue solution 0.4% (Catalog No. 15250061, ThermoSischer Scientific, Waltham, MA, USA) and cell count was determined. […]
Samples were boiled for 5 minutes and placed on ice for 30 minutes. […] Supernatants were transferred to a new 2.0 mL microcentrifuge tube and total protein concentrations were measured using Pierce™ BCA Protein Assay Kit (Catalog No. 23225, ThermoFischer Scientific, Waltham, MA USA).
After total protein quantification, all samples were diluted to a fixed μg/μL of protein in 6× loading buffer (Catalog No. BP-111R, Boston Bioproducts, Inc., Milford, MA, USA) for a final concentration of 40 μg of total protein in 1× loading buffer per lane. […]

IKZF1 = biological target: T2, IKZF1 (Homo sapiens, UniProt Q13422+Q96SW2); test: IKZF1 HiBiT degradation assay in NCIH929.11 cells; type: cell-based
T2 construct: CRISPR-edited to endogenously express HiBiT tagged IKZF1; host or cells: NCIH929.11
T2 sequence (Q13422 whole entry): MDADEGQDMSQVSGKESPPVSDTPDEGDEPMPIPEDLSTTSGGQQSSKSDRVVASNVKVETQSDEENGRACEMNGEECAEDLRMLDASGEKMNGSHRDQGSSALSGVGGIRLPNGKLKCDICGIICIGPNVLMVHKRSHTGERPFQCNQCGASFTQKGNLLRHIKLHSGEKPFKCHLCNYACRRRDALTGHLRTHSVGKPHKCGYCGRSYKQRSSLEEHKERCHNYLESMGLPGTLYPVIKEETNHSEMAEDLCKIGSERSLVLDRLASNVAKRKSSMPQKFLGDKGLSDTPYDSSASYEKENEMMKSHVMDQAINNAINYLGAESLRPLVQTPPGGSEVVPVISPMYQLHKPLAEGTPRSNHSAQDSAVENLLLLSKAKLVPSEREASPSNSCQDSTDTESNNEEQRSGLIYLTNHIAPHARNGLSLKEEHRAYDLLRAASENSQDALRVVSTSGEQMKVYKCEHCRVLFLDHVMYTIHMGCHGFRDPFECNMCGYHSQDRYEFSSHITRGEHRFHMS
T2 sequence (Q96SW2 whole entry): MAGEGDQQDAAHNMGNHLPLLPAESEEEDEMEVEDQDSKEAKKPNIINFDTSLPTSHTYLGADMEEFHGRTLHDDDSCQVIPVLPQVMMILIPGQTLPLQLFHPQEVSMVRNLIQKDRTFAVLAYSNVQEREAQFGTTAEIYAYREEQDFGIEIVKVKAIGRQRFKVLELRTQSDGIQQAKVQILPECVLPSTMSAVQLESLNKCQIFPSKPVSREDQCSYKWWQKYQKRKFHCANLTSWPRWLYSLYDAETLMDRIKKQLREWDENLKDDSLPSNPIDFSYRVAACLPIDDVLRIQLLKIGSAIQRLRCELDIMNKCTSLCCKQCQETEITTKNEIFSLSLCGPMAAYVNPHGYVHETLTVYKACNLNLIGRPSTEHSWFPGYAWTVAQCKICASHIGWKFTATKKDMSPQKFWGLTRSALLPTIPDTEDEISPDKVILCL
T2 sequence (Q16531 2-1140 partner limits assumed): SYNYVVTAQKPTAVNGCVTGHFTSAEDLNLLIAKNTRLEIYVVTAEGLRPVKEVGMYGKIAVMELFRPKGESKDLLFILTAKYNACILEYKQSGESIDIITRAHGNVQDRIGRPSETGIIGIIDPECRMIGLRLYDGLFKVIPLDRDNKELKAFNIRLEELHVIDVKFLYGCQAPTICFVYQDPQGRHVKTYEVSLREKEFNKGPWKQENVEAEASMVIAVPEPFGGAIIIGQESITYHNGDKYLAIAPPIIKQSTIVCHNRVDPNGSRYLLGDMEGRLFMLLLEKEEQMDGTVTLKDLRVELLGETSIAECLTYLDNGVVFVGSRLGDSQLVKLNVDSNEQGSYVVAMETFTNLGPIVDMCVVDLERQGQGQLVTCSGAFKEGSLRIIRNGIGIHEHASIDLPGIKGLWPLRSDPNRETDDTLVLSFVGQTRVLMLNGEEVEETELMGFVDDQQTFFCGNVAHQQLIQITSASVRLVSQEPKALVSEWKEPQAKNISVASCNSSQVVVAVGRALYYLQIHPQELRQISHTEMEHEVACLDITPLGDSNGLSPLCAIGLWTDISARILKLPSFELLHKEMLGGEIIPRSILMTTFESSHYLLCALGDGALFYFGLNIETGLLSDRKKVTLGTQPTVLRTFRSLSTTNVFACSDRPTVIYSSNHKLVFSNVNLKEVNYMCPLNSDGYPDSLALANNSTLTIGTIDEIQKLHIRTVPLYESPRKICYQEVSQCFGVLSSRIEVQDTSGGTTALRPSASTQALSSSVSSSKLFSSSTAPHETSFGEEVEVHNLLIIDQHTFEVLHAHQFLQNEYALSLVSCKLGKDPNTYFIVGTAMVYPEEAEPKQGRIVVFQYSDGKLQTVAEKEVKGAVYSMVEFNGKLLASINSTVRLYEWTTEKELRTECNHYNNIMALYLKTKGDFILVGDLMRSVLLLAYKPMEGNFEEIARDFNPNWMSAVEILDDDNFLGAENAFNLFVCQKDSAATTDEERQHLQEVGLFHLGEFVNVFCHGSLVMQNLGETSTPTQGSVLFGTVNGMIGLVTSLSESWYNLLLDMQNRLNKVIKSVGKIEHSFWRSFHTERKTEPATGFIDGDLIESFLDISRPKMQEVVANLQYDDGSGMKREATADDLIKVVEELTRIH

COc1cc(-c2cn(C)c(=O)c(C)c2C)cc(OC)c1CN1CC[C@H](N2CCN(c3ccc(N[C@H]4CCC(=O)NC4=O)cc3F)CC2)C(F)(F)C1 [Compound 1, (S)-3-((4-(4-((S)-1-(2,6-dimethoxy-4-(1,4,5-trimethyl-6-oxo-1,6-dihydropyridin-3-yl)benzyl)-3,3-difluoropiperidin-4-yl)piperazin-1-yl)-3-fluorophenyl)amino)-piperidine-2,6-dione]
% BRD9 remaining (BRD9; 4 hr): 1.2%
% BRD9 remaining (BRD9; 24 hr): 3.4%
% IKZF1 Remaining Relative to Vehicle Control at 6 hr, Mean (IKZF1; 0.101 nM): 100.8%
% IKZF1 Remaining Relative to Vehicle Control at 6 hr, Mean (IKZF1; 0.318 nM): 106.4%
% IKZF1 Remaining Relative to Vehicle Control at 6 hr, Mean (IKZF1; 1.01 nM): 102.9%
% IKZF1 Remaining Relative to Vehicle Control at 6 hr, Mean (IKZF1; 3.17 nM): 100.4%
% IKZF1 Remaining Relative to Vehicle Control at 6 hr, Mean (IKZF1; 10.0 nM): 98.5%
% IKZF1 Remaining Relative to Vehicle Control at 6 hr, Mean (IKZF1; 31.7 nM): 96.0%
% IKZF1 Remaining Relative to Vehicle Control at 6 hr, Mean (IKZF1; 100 nM): 95.9%
% IKZF1 Remaining Relative to Vehicle Control at 6 hr, Mean (IKZF1; 317 nM): 91.5%
% IKZF1 Remaining Relative to Vehicle Control at 6 hr, Mean (IKZF1; 1000 nM): 93.3%
% IKZF1 Remaining Relative to Vehicle Control at 6 hr, Mean (IKZF1; 3161 nM): 80.8%
% IKZF1 Remaining Relative to Vehicle Control at 6 hr, Mean (IKZF1; 9990 nM): 74.2%
degradation of IKZF1 (IKZF1; 10 μM, 6 hours): 25%
Emax (IKZF1; IKZF1-HiBiT, NCIH929.11 cells, 6 hours, read-out: Mean Emax (%) ± SD): 74.2 ± 8.2%
effect on degradation of IKZF1 (IKZF1; concentrations up to 1 μM, 6 hours): no significant effect
